Patent publication US4100284A, “1,4-Dioxo- and 4-oxoquinoxaline-2-carboxaldehyde sulfonylhydrazones and certain derivatives thereof” (Pfizer Inc., priority 1977, dated 1978)
In brackets after ≈: the same amount, converted by molar mass.

Columns and labels:
Salmonella cholerasuis [1] = assay: In vitro antibacterial activity, two-fold serial dilution in Brain-Heart Infusion broth (MIC); format: cell-based; details: anaerobic, overnight
Protocol: (§1) The broth is inoculated with bacteria, and with the test compound of formula (I), and then it is incubated overnight under anaerobic conditions. On the next day, the test is read visually. The minimum inhibitory concentration (MIC) of test compound is the lowest concentration which prevents turbidity, i.e., which prevents growth of the microoganism.

E. Coli = assay: as above; format: cell-based; details: Escherichia coli, anaerobic, overnight
Protocol: as §1

Staph. aureus = assay: as above; format: cell-based; details: Staphylococcus aureus, anaerobic, overnight
Protocol: as §1

Pasteurella multocida = assay: as above; format: cell-based; details: anaerobic, overnight
Protocol: as §1

Strep. pyogenes = assay: as above; format: cell-based; details: Streptococcus pyogenes, anaerobic, overnight
Protocol: as §1

Salmonella cholerasuis [2] = assay: In vivo protection of mice against a lethal challenge of Salmonella cholerasuis; details: at 25 mg./Kg., multiple dosing
Protocol: The compounds of formula (I) also show antibacterial activity in vivo. In determining such activity, the test compound is administered to mice which have been infected by intraperitoneal injection of a lethal inoculum of pathogenic bacteria. The test compound is administered using a multiple dosing regimen, and using either the oral (PO) or the subcutaneous (SC) route. The inoculum of bacteria varies from one to about ten times the amount needed to kill 100% of the mice, under the conditions of the test. At the end of the test, the activity of a compound is assessed by counting the number of survivors among the treated animals. Results are also given in Table I, wherein the ability of the compound to protect mice against a lethal challenge of Salmonella cholerasuis is presented.

SMILES | MIC (Salmonella cholerasuis [1]) | MIC (E. Coli) | MIC (Staph. aureus) | MIC (Pasteurella multocida) | MIC (Strep. pyogenes) | % Survivors vs. Sal. Cholarasuis, PO (Salmonella cholerasuis [2]) | % Survivors vs. Sal. Cholarasuis, SC (Salmonella cholerasuis [2])
COc1ccc(S(=O)(=O)NN=Cc2c[n+]([O-])c3ccccc3n2)cc1 [N, H, H, 4-CH3 OC6 H4, 4-Oxoquinoxaline-2-carboxaldehyde p-Methoxybenzenesulfonylhydrazone] | 6.25 µg/mL (≈ 17.4 µM) | 3.12 µg/mL (≈ 8.72 µM) | 12.5 µg/mL (≈ 34.9 µM) | 1.56 µg/mL (≈ 4.35 µM) | 6.25 µg/mL (≈ 17.4 µM) | – | –
O=S(=O)(NN=Cc1c[n+]([O-])c2ccccc2[n+]1[O-])c1ccccc1 [N → O, H, H, C6 H5, 1,4-Dioxoquinoxaline-2-carboxaldehyde Benzenesulfonylhydrazone] | 12.5 µg/mL (≈ 36.3 µM) | 12.5 µg/mL (≈ 36.3 µM) | 100 µg/mL (≈ 290 µM) | 12.5 µg/mL (≈ 36.3 µM) | 25 µg/mL (≈ 72.6 µM) | – | –
CS(=O)(=O)NN=Cc1c[n+]([O-])c2ccccc2[n+]1[O-] [N → O, H, H, CH3] | 6.25 µg/mL (≈ 22.1 µM) | 3.12 µg/mL (≈ 11.1 µM) | 25 µg/mL (≈ 88.6 µM) | 12.5 µg/mL (≈ 44.3 µM) | 12.5 µg/mL (≈ 44.3 µM) | 10% | 60%
O=S(=O)(NN=Cc1c[n+]([O-])c2ccccc2[n+]1[O-])c1ccc(F)cc1 [N → O, H, H, 4-FC6 H4] | 6.25 µg/mL (≈ 17.2 µM) | 3.12 µg/mL (≈ 8.62 µM) | 25 µg/mL (≈ 69 µM) | 3.12 µg/mL (≈ 8.62 µM) | 12.5 µg/mL (≈ 34.5 µM) | 10% | 30%
Cc1ccc(S(=O)(=O)NN=Cc2c[n+]([O-])c3ccccc3n2)cc1 [N, H, H, 4-CH3 C6 H4, 4-Oxoquinoxaline-2-carboxaldehyde p-Toluenesulfonylhydrazone] | 3.12 µg/mL (≈ 9.13 µM) | 3.12 µg/mL (≈ 9.13 µM) | 25 µg/mL (≈ 73 µM) | 3.12 µg/mL (≈ 9.13 µM) | 12.5 µg/mL (≈ 36.5 µM) | 60% | 100%
Cc1ccc(S(=O)(=O)NN=Cc2c[n+]([O-])c3ccccc3[n+]2[O-])cc1 [N → O, H, H, 4-CH3 C6 H4, 1,4-Dioxoquinoxaline-2-carboxaldehyde p-Toluenesulfonylhydrazone] | 6.25 µg/mL (≈ 17.4 µM) | 1.56 µg/mL (≈ 4.35 µM) | 25 µg/mL (≈ 69.8 µM) | 3.12 µg/mL (≈ 8.72 µM) | 12.5 µg/mL (≈ 34.9 µM) | 30% | 100%
